{"source": "ChEMBL document CHEMBL1201861", "about": "“Genomics of Drug Sensitity in Cancer screening data, Wellcome Trust Sanger Institute”", "experiment_in_all_cases": "cells", "key": {"[1]": {"tested_on": "T84", "type": "functional, cell-based, Homo sapiens", "conditions": "Homo sapiens, T84", "description": "SANGER: Inhibition of human T84 cell growth in a cell viability assay."}, "[2]": {"tested_on": "RPMI-7951", "type": "functional, cell-based, Homo sapiens", "conditions": "Homo sapiens, RPMI-7951", "description": "SANGER: Inhibition of human RPMI-7951 cell growth in a cell viability assay."}, "[3]": {"tested_on": "AU565", "type": "functional, cell-based, Homo sapiens", "conditions": "Homo sapiens, AU565", "description": "SANGER: Inhibition of human AU565 cell growth in a cell viability assay."}, "[4]": {"tested_on": "RO82-W-1", "type": "functional, cell-based, Homo sapiens", "conditions": "Homo sapiens, RO82-W-1", "description": "SANGER: Inhibition of human RO82-W-1 cell growth in a cell viability assay."}, "[5]": {"tested_on": "LK-2", "type": "functional, cell-based, Homo sapiens", "conditions": "Homo sapiens, LK-2", "description": "SANGER: Inhibition of human LK-2 cell growth in a cell viability assay."}, "[6]": {"tested_on": "A101D", "type": "functional, cell-based, Homo sapiens", "conditions": "Homo sapiens, A101D", "description": "SANGER: Inhibition of human A101D cell growth in a cell viability assay."}, "[7]": {"tested_on": "CAMA-1", "type": "functional, cell-based, Homo sapiens", "conditions": "Homo sapiens, CAMA-1", "description": "SANGER: Inhibition of human CAMA-1 cell growth in a cell viability assay."}, "[8]": {"tested_on": "EW-24", "type": "functional, cell-based", "conditions": "Homo sapiens", "description": "SANGER: Inhibition of human EW-24 cell growth in a cell viability assay."}, "[9]": {"tested_on": "MDA-MB-415", "type": "functional, cell-based", "conditions": "Homo sapiens"}, "[10]": {"tested_on": "MKN-28", "type": "functional, cell-based, Homo sapiens", "conditions": "Homo sapiens, MKN-28", "description": "SANGER: Inhibition of human MKN28 cell growth in a cell viability assay."}, "[11]": {"tested_on": "NY", "type": "functional, cell-based, Homo sapiens", "conditions": "Homo sapiens, NY", "description": "SANGER: Inhibition of human NY cell growth in a cell viability assay."}, "[12]": {"tested_on": "Becker", "type": "functional, cell-based, Homo sapiens", "conditions": "Homo sapiens, Becker", "description": "SANGER: Inhibition of human Becker cell growth in a cell viability assay."}, "[13]": {"tested_on": "SK-N-AS", "type": "functional, cell-based, Homo sapiens", "conditions": "Homo sapiens, SK-N-AS", "description": "SANGER: Inhibition of human SK-N-AS cell growth in a cell viability assay."}, "[14]": {"tested_on": "HOP-62", "type": "functional, cell-based, Homo sapiens", "conditions": "Homo sapiens, HOP-62", "description": "SANGER: Inhibition of human HOP-62 cell growth in a cell viability assay."}, "[15]": {"tested_on": "CAL-27", "type": "functional, cell-based, Homo sapiens", "conditions": "Homo sapiens, CAL-27", "description": "SANGER: Inhibition of human CAL-27 cell growth in a cell viability assay."}, "[16]": {"tested_on": "Panc1005", "type": "functional, cell-based, Homo sapiens", "conditions": "Homo sapiens, Panc1005", "description": "SANGER: Inhibition of human PANC-10-05 cell growth in a cell viability assay."}, "[17]": {"tested_on": "MSTO-211H", "type": "functional, cell-based, Homo sapiens", "conditions": "Homo sapiens, MSTO-211H", "description": "SANGER: Inhibition of human MSTO-211H cell growth in a cell viability assay."}, "[18]": {"tested_on": "UACC-893", "type": "functional, cell-based, Homo sapiens", "conditions": "Homo sapiens, UACC-893", "description": "SANGER: Inhibition of human UACC-893 cell growth in a cell viability assay."}, "[19]": {"tested_on": "NCI-H69", "type": "functional, cell-based", "conditions": "Homo sapiens", "description": "SANGER: Inhibition of human NCI-H69 cell growth in a cell viability assay."}, "[20]": {"tested_on": "NCI-H2342", "type": "functional, cell-based", "conditions": "Homo sapiens", "description": "SANGER: Inhibition of human NCI-H2342 cell growth in a cell viability assay."}, "[21]": {"tested_on": "RPMI-8226", "type": "functional, cell-based", "conditions": "Homo sapiens", "description": "SANGER: Inhibition of human RPMI-8226 cell growth in a cell viability assay."}, "[22]": {"tested_on": "CAPAN-1", "type": "functional, cell-based, Homo sapiens", "conditions": "Homo sapiens, CAPAN-1", "description": "SANGER: Inhibition of human CAPAN-1 cell growth in a cell viability assay."}, "[23]": {"tested_on": "8305C", "type": "functional, cell-based, Homo sapiens", "conditions": "Homo sapiens, 8305C", "description": "SANGER: Inhibition of human 8305C cell growth in a cell viability assay."}, "[24]": {"tested_on": "EW-1", "type": "functional, cell-based, Homo sapiens", "conditions": "Homo sapiens, EW-1", "description": "SANGER: Inhibition of human EW-1 cell growth in a cell viability assay."}, "[25]": {"tested_on": "BT-474", "type": "functional, cell-based, Homo sapiens", "conditions": "Homo sapiens, BT-474", "description": "SANGER: Inhibition of human BT-474 cell growth in a cell viability assay."}, "[26]": {"tested_on": "D-247MG", "type": "functional, cell-based, Homo sapiens", "conditions": "Homo sapiens, D-247MG", "description": "SANGER: Inhibition of human D-247MG cell growth in a cell viability assay."}, "[27]": {"tested_on": "RPMI-2650", "type": "functional, cell-based, Homo sapiens", "conditions": "Homo sapiens, RPMI-2650", "description": "SANGER: Inhibition of human RPMI-2650 cell growth in a cell viability assay."}, "[28]": {"tested_on": "M14", "type": "functional, cell-based, Homo sapiens", "conditions": "Homo sapiens, M14", "description": "SANGER: Inhibition of human M14 cell growth in a cell viability assay."}, "[29]": {"tested_on": "HCE-4", "type": "functional, cell-based, Homo sapiens", "conditions": "Homo sapiens, HCE-4", "description": "SANGER: Inhibition of human HCE-4 cell growth in a cell viability assay."}, "[30]": {"tested_on": "DMS-79", "type": "functional, cell-based", "conditions": "Homo sapiens", "description": "SANGER: Inhibition of human DMS-79 cell growth in a cell viability assay."}, "[31]": {"tested_on": "FaDu", "type": "functional, cell-based, Homo sapiens", "conditions": "Homo sapiens, FaDu", "description": "SANGER: Inhibition of human FADU cell growth in a cell viability assay."}, "[32]": {"tested_on": "SF-539", "type": "functional, cell-based, Homo sapiens", "conditions": "Homo sapiens, SF-539", "description": "SANGER: Inhibition of human SF539 cell growth in a cell viability assay."}, "[33]": {"tested_on": "HN", "type": "functional, cell-based, Homo sapiens", "conditions": "Homo sapiens, HN", "description": "SANGER: Inhibition of human HN cell growth in a cell viability assay."}, "[34]": {"tested_on": "ES1", "type": "functional, cell-based, Homo sapiens", "conditions": "Homo sapiens, ES1", "description": "SANGER: Inhibition of human ES1 cell growth in a cell viability assay."}, "[35]": {"tested_on": "CAS-1", "type": "functional, cell-based, Homo sapiens", "conditions": "Homo sapiens, CAS-1", "description": "SANGER: Inhibition of human CAS-1 cell growth in a cell viability assay."}, "[36]": {"tested_on": "EW-11", "type": "functional, cell-based, Homo sapiens", "conditions": "Homo sapiens, EW-11", "description": "SANGER: Inhibition of human EW-11 cell growth in a cell viability assay."}, "[37]": {"tested_on": "ABC-1", "type": "functional, cell-based, Homo sapiens", "conditions": "Homo sapiens, ABC-1", "description": "SANGER: Inhibition of human ABC-1 cell growth in a cell viability assay."}, "[38]": {"tested_on": "NCI-H2347", "type": "functional, cell-based, Homo sapiens", "conditions": "Homo sapiens, NCI-H2347", "description": "SANGER: Inhibition of human NCI-H2347 cell growth in a cell viability assay."}, "[39]": {"tested_on": "NCI-H720", "type": "functional, cell-based", "conditions": "Homo sapiens", "description": "SANGER: Inhibition of human NCI-H720 cell growth in a cell viability assay."}, "[40]": {"tested_on": "LS-123", "type": "functional, cell-based, Homo sapiens", "conditions": "Homo sapiens, LS-123", "description": "SANGER: Inhibition of human LS-123 cell growth in a cell viability assay."}, "[41]": {"tested_on": "SK-UT-1", "type": "functional, cell-based, Homo sapiens", "conditions": "Homo sapiens, SK-UT-1", "description": "SANGER: Inhibition of human SK-UT-1 cell growth in a cell viability assay."}, "[42]": {"tested_on": "U-266", "type": "functional, cell-based", "conditions": "Homo sapiens", "description": "SANGER: Inhibition of human U-266 cell growth in a cell viability assay."}, "[43]": {"tested_on": "SCC-4", "type": "functional, cell-based, Homo sapiens", "conditions": "Homo sapiens, SCC-4", "description": "SANGER: Inhibition of human SCC-4 cell growth in a cell viability assay."}, "[44]": {"tested_on": "SW982", "type": "functional, cell-based", "conditions": "Homo sapiens", "description": "SANGER: Inhibition of human SW982 cell growth in a cell viability assay."}, "[45]": {"tested_on": "AGS", "type": "functional, cell-based, Homo sapiens", "conditions": "Homo sapiens, AGS", "description": "SANGER: Inhibition of human AGS cell growth in a cell viability assay."}, "[46]": {"tested_on": "SK-N-FI", "type": "functional, cell-based, Homo sapiens", "conditions": "Homo sapiens, SK-N-FI", "description": "SANGER: Inhibition of human SK-N-FI cell growth in a cell viability assay."}, "[47]": {"tested_on": "LB771-HNC", "type": "functional, cell-based, Homo sapiens", "conditions": "Homo sapiens, LB771-HNC", "description": "SANGER: Inhibition of human LB771-HNC cell growth in a cell viability assay."}, "[48]": {"tested_on": "HuCCT-1", "type": "functional, cell-based, Homo sapiens, HuCCT1", "conditions": "Homo sapiens, HuCCT-1", "description": "SANGER: Inhibition of human HuCCT1 cell growth in a cell viability assay."}, "[49]": {"tested_on": "JVM-2", "type": "functional, cell-based", "conditions": "Homo sapiens", "description": "SANGER: Inhibition of human JVM-2 cell growth in a cell viability assay."}, "[50]": {"tested_on": "NB14", "type": "functional, cell-based", "conditions": "Homo sapiens", "description": "SANGER: Inhibition of human NB14 cell growth in a cell viability assay."}, "[51]": {"tested_on": "HCC2218", "type": "functional, cell-based", "conditions": "Homo sapiens", "description": "SANGER: Inhibition of human HCC2218 cell growth in a cell viability assay."}, "[52]": {"tested_on": "P12-Ichikawa", "type": "functional, cell-based", "conditions": "Homo sapiens"}}}
{"compound": "CC(=O)O[C@@]12CO[C@@H]1C[C@H](O)[C@@]1(C)C(=O)[C@H](O)C3=C(C)[C@@H](OC(=O)[C@H](O)[C@@H](NC(=O)OC(C)(C)C)c4ccccc4)C[C@@](O)([C@@H](OC(=O)c4ccccc4)[C@H]21)C3(C)C", "note": "[DOCETAXEL]", "values": [{"measurement": "IC50", "setting": "[1]", "value": "> 10", "unit": "nM"}, {"measurement": "IC50", "setting": "[2]", "value": 0.448, "unit": "nM"}, {"measurement": "IC50", "setting": "[3]", "value": 1.81, "unit": "nM"}, {"measurement": "IC50", "setting": "[4]", "value": 5.31, "unit": "nM"}, {"measurement": "IC50", "setting": "[5]", "value": 1.21, "unit": "nM"}, {"measurement": "IC50", "setting": "[6]", "value": "> 10", "unit": "nM"}, {"measurement": "IC50", "setting": "[7]", "value": 1.31, "unit": "nM"}, {"measurement": "IC50", "setting": "[8]", "value": 4.33, "unit": "nM"}, {"measurement": "IC50", "setting": "[9]", "value": 2.74, "unit": "nM"}, {"measurement": "IC50", "setting": "[10]", "value": 3.17, "unit": "nM"}, {"measurement": "IC50", "setting": "[11]", "value": "> 10", "unit": "nM"}, {"measurement": "IC50", "setting": "[12]", "value": 1.83, "unit": "nM"}, {"measurement": "IC50", "setting": "[13]", "value": 5.35, "unit": "nM"}, {"measurement": "IC50", "setting": "[14]", "value": "> 10", "unit": "nM"}, {"measurement": "IC50", "setting": "[15]", "value": 0.339, "unit": "nM"}, {"measurement": "IC50", "setting": "[16]", "value": "> 10", "unit": "nM"}, {"measurement": "IC50", "setting": "[17]", "value": "> 10", "unit": "nM"}, {"measurement": "IC50", "setting": "[18]", "value": "> 10", "unit": "nM"}, {"measurement": "IC50", "setting": "[19]", "value": "> 10", "unit": "nM"}, {"measurement": "IC50", "setting": "[20]", "value": "> 10", "unit": "nM"}, {"measurement": "IC50", "setting": "[21]", "value": 4.97, "unit": "nM"}, {"measurement": "IC50", "setting": "[22]", "value": "> 10", "unit": "nM"}, {"measurement": "IC50", "setting": "[23]", "value": 5.76, "unit": "nM"}, {"measurement": "IC50", "setting": "[24]", "value": 2.98, "unit": "nM"}, {"measurement": "IC50", "setting": "[25]", "value": "> 10", "unit": "nM"}, {"measurement": "IC50", "setting": "[26]", "value": 1.73, "unit": "nM"}, {"measurement": "IC50", "setting": "[27]", "value": 2.46, "unit": "nM"}, {"measurement": "IC50", "setting": "[28]", "value": 1.91, "unit": "nM"}, {"measurement": "IC50", "setting": "[29]", "value": 2.47, "unit": "nM"}, {"measurement": "IC50", "setting": "[30]", "value": "> 10", "unit": "nM"}, {"measurement": "IC50", "setting": "[31]", "value": 5.1, "unit": "nM"}, {"measurement": "IC50", "setting": "[32]", "value": 0.302, "unit": "nM"}, {"measurement": "IC50", "setting": "[33]", "value": 0.758, "unit": "nM"}, {"measurement": "IC50", "setting": "[34]", "value": 0.77, "unit": "nM"}, {"measurement": "IC50", "setting": "[35]", "value": "> 10", "unit": "nM"}, {"measurement": "IC50", "setting": "[36]", "value": 1.69, "unit": "nM"}, {"measurement": "IC50", "setting": "[37]", "value": "> 10", "unit": "nM"}, {"measurement": "IC50", "setting": "[38]", "value": "> 10", "unit": "nM"}, {"measurement": "IC50", "setting": "[39]", "value": 0.58, "unit": "nM"}, {"measurement": "IC50", "setting": "[40]", "value": 4.25, "unit": "nM"}, {"measurement": "IC50", "setting": "[41]", "value": 2.26, "unit": "nM"}, {"measurement": "IC50", "setting": "[42]", "value": 3.48, "unit": "nM"}, {"measurement": "IC50", "setting": "[43]", "value": 0.739, "unit": "nM"}, {"measurement": "IC50", "setting": "[44]", "value": 1.27, "unit": "nM"}, {"measurement": "IC50", "setting": "[45]", "value": 3.28, "unit": "nM"}, {"measurement": "IC50", "setting": "[46]", "value": "> 10", "unit": "nM"}, {"measurement": "IC50", "setting": "[47]", "value": "> 10", "unit": "nM"}, {"measurement": "IC50", "setting": "[48]", "value": 5.68, "unit": "nM"}, {"measurement": "IC50", "setting": "[49]", "value": "> 10", "unit": "nM"}, {"measurement": "IC50", "setting": "[50]", "value": 0.26, "unit": "nM"}, {"measurement": "IC50", "setting": "[51]", "value": "> 10", "unit": "nM"}, {"measurement": "IC50", "setting": "[52]", "value": 0.745, "unit": "nM"}]}
